Reference: PMC7601231 (Polymers, 2020)

Key:
[1] = Biodistribution study in rats; type: in vivo; settings: 10 mg/kg, 10, 60 and 360 min after administration
[2] = Pharmacokinetic study in rats after injection; type: in vivo, Sprague–Dawley rats; settings: 10 mg/kg, n = 12
Procedure: Blood samples (0.5 mL) were taken from the retinal vein of the rats using a capillary and at the following time points after injecting: 5, 10, 15, 30 min, 1, 2, 4, 6, 8, 10 and 12 h. The sample should be transferred to the heparin sodium tube for anticoagulation. The samples were centrifuged at 4000 rpm for 10 min. The resultant plasma was poured into 2-mL cryogenic plastic tubes and stored in a freezer (at […]) until assayed. A week later, the two groups of animals exchanged the drug and obtained plasma samples, which were stored in the −20-degree refrigerator for analysis. The sample was extracted in the following steps: the plasma ([…]) was mixed with […] of paclitaxel solution (4.0 mg/mL) as […], and 1.0 mL methyl tert-butyl ether in a 2-mL plastic centrifuge tube, centrifuged at 10,000 rpm for 5 min to precipitate the proteins and the supernatant layer (0.8 mL) was blown dry by N2 and is dissolved by 0.1 mL methanol, which was centrifuged at 10,000 rpm for 10 min. The supernatant layer ([…]) was analyzed by LC-MS (Waters, American).
The plasma concentration versus time curves of the two preparations were plotted. The pharmacokinetic parameters such as elimination rate (Ke) and elimination half-life (T1/2) were calculated by using DAS2.0 software. The maximum peak concentration (Cmax) and the corresponding sampling time (Tmax) were obtained from the curves directly. The areas under the plasma concentration–time curve from time zero to time t (AUC0–t) and from time zero to infinity (AUC0-∞) were calculated by the method of moments. Statistical comparisons were made by using a ANOVA test and p value smaller than 0.05 was considered statistically significant.

[3] = Vascular stimulation test, ear vein injection; type: in vivo, New Zealand white rabbits; settings: rabbit ear vein, 0.7 mg/kg, every day, three injections
Procedure: Preparations were administered every day for a total of three injections. At designed time points, rabbits were anesthetized and ear tissue was soaked with 10% formalin. Then the histopathologic examination was conducted.

[4] = Phase-solubility studies of DTX in SBE-β-CD aqueous solution; type: physicochemical; settings: 25 °C
Procedure: In this study, the stability constant was assessed by classic determination method using solubility diagrams that required calculations involving drug solubility. […] Then the resulting suspensions were shaken in a thermostatic air-bath shaker at 25 °C for 48 h until equilibrium was achieved. After that, the saturated supernatant fluid was centrifuged for 5 min under 5000 rpm, and then the top fluid was withdrawn and filtered through a 0.45-μm filter. The filtrate was diluted appropriately with deionized water and analyzed by HPLC as reported above.

CC(=O)O[C@@]12CO[C@@H]1C[C@H](O)[C@@]1(C)C(=O)[C@H](O)C3=C(C)[C@@H](OC(=O)[C@H](O)[C@@H](NC(=O)OC(C)(C)C)c4ccccc4)C[C@@](O)([C@@H](OC(=O)c4ccccc4)[C@H]21)C3(C)C [DTX, Docetaxel]
concentration of DTX in brain, fat and testis [1]: low
AUC(0-t) [2]: 881.4 ± 30.4 ng/mL ∗ h
AUC(0-∞) [2]: 925.8 ± 35.2 ng/mL ∗ h
Cmax ([2]; male, Sprague-Dawley, rat, plasma, other: injection): 1100 ± 98 ng/mL
vascular stimulation: reaction at the injection site (histopathology) [3]: serious vascular inflammation and surrounding tissue lesions
increase of water solubility of DTX over its original values [4]: about 800 times
